Assay results as given in patent US4833144A, “2-Alkylsulfinyl-4(3H)-quinazolinone derivatives and pharmaceutical compositions” (Nisshin Flour Milling Co., Ltd., priority 1987, dated 1989).

test system: indomethacin induced ulcer; test: antiulcer activity: suppression of indomethacin induced ulcer in mice; assay type: in vivo, ddY series male mice; conditions: Mus musculus, po, 4 h, read-out: Suppression rate of indomethacin induced ulcer, 100 mg/kg, p.o.
Protocol: The antiulcer activity of the compounds of this invention was determined by the following method. Four-week-old ddY series male mice were used as the test animals after they were fasted for 24 hours. Each test compound suspended in a 1% gum arabic solution was administerd to the stomach of each mouse at a dose of 100 mg/kg, and then, after 30 minutes, 20 mg/kg of indomethacin was administered orally. Four hours after the administration of indomethacin, the stomach of mouse was extirpated and the length of ulcers was measured. Then, the ulcer index was determined by the total sum of the scores as calculated in Table 1.

With CN/C(=N/CCSCc1nc[nH]c1C)NC#N [Cimetidine, reference compound] the inhibition in vivo at 100 mg/kg was 40%.

same assay, conditions: po; mouse, 100 mg/kg p.o. 30 min before 20 mg/kg indomethacin; ulcer index 4 h later, vs control group; read-out: Suppression rate of indomethacin induced ulcer, 100 mg/kg, p.o.

In order of falling inhibition in vivo at 100 mg/kg:
1. O=c1c2ccccc2nc([S+]([O-])Cc2ccccn2)n1-c1ccccc1 (stereo not drawn) [3-Phenyl-2-(2-pyridylmethylsulfinyl)-4(3H)-quinazolinone]  83%
2. COc1cc(C[S+]([O-])c2nc3ccccc3c(=O)n2-c2ccccc2)ncc1C (stereo not drawn) [2-[(4-methoxy-5-methylpyridin-2-yl)methylsulfinyl]-3-phenyl-4(3H)-quinazolinone]  82%
3. Cc1cccc2nc([S+]([O-])Cc3ccccn3)n(-c3ccccc3)c(=O)c12 (stereo not drawn) [5-methyl-3-phenyl-2-(2-pyridylmethylsulfinyl)-4(3H)-quinazolinone]  77%
4. COc1cccc(-n2c([S+]([O-])Cc3ccccn3)nc3ccccc3c2=O)c1 (stereo not drawn) [3-(3-methoxyphenyl)-2-(2-pyridylmethylsulfinyl)-4(3H)-quinazolinone]  73%
5. Cc1ccc(-n2c([S+]([O-])Cc3ccccn3)nc3ccccc3c2=O)cc1 (stereo not drawn) [3-(4-methylphenyl)-2-(2-pyridylmethylsulfinyl)-4(3H)-quinazolinone]  73%
6. COc1ccc(-n2c([S+]([O-])Cc3ccccn3)nc3ccccc3c2=O)cc1 (stereo not drawn) [3-(4-methoxyphenyl)-2-(2-pyridylmethylsulfinyl)-4(3H)-quinazolinone]  72%
7. O=c1c2ccccc2nc([S+]([O-])Cc2ccncc2)n1-c1ccccc1 (stereo not drawn) [3-Phenyl-2-(4-pyridylmethylsulfinyl)-4(3H)-quinazolinone]  69%
8. Cc1ccnc(C[S+]([O-])c2nc3ccccc3c(=O)n2-c2ccccc2)c1 (stereo not drawn) [2-[(4-methylpyridin-2-yl)methylsulfinyl]-3-phenyl-4(3H)-quinazolinone]  68%
9. O=c1c2ccccc2nc([S+]([O-])Cc2ccnc3ccccc23)n1-c1ccccc1 (stereo not drawn) [3-phenyl-2-(4-quinolylmethylsulfinyl)-4(3H)-quinazolinone]  64%
10. COc1cc(C[S+]([O-])c2nc3ccc(C)cc3c(=O)n2-c2ccccc2)ncc1C (stereo not drawn) [2-[(4-methoxy-5-methylpyridine-2-yl)methylsulfinyl]-6-methyl-3-phenyl-4(3H)-quinazolinone]  59%
11. O=c1c2ccccc2nc([S+]([O-])Cc2ccccn2)n1-c1ccccc1Cl (stereo not drawn) [3-(2-chlorophenyl)-2-(2-pyridylmethylsulfinyl)-4(3H)-quinazolinone]  56%
12. Cc1ccc2nc([S+]([O-])Cc3ccccn3)n(-c3ccccc3)c(=O)c2c1 (stereo not drawn) [6-methyl-3-phenyl-2-(2-pyridylmethylsulfinyl)-4(3H)-quinazolinone]  56%
13. O=c1c2ccccc2nc([S+]([O-])Cc2cccnc2)n1-c1ccccc1 (stereo not drawn) [3-phenyl-2-(3-pyridylmethylsulfinyl)-4(3H)-quinazolinone]  55%
14. COc1ccc(-n2c([S+]([O-])Cc3nccc(OC)c3C)nc3ccc(C)cc3c2=O)cc1 (stereo not drawn) [2-[(4-methoxy-3-methylpyridin-2-yl)methylsulfinyl]-3-(4-methoxyphenyl)-6-methyl-4(3H)-quinazolinone]  51%
15. CC(C)Cn1c([S+]([O-])Cc2ccccn2)nc2ccccc2c1=O (stereo not drawn) [3-isobutyl-2-(2-pyridylmethylsulfinyl)-4(3H)-quinazolinone]  40%
16. O=c1c2ccccc2nc([S+]([O-])Cc2ccccn2)n1-c1cccc2ccccc12 (stereo not drawn) [3-(1-naphthyl)-2-(2-pyridylmethylsulfinyl)-4(3H)-quinazolinone]  39%

test system: not listed separately; test: acute oral toxicity (LD50); conditions: in vivo

O=c1c2ccccc2nc([S+]([O-])Cc2ccccn2)n1-c1ccccc1 (stereo not drawn) [3-Phenyl-2-(2-pyridylmethylsulfinyl)-4(3H)-quinazolinone] showed an LD50 greater than 3000 mg/kg.
